Laboratory results as given in patent US10967076B2, “Use of non-labeled sugars and detection by MRI for assessing tissue perfusion and metabolism” (The Johns Hopkins University, priority 2010, dated 2021).

Key:
[1] = test system: MDA-MB-231 and MCF-7 xenografts; experiment: steady-state glucoCEST MRI before and after D-glucose infusion in a xenograft mouse at 9.4 T; type: in vivo, mice; conditions: offset 1.2 ppm, blood glucose about 20 mM, preliminary data, FIG. 4F
Source text: Tumors are generally characterized by rapid glucose metabolism, increased tissue blood volume, and increased permeability to extravascular extracellular space (EES). We applied glucose infusion in vivo on xenografts in mice for two human breast cancer lines: less aggressive (MCF-7) and highly aggressive and metastatic (MDA-MB-231). Our MRI protocol used normal D-glucose (non-radioactive, non-hyperpolarized and not labeled with magnetic isotopes) and monitored this using glucose-based chemical exchange saturation transfer (glucoCEST) MRI. Images were compared with perfusion as assessed by dynamic contrast-enhanced (DCE) MRI and glucose uptake as assessed by FDG-PET. In-vivo animal experiments employed female SCID mice four to six weeks old. Tumor cells were implanted orthotopically in the mammary fat pad in an aseptic surgical procedure according to Institutional Animal Care and Use Committee (IACUC) guidelines. […] Following tumor cell implants, animals were monitored until recovered from anesthesia and then checked after 6 and 12 h, then daily. […]

[2] = test system: MDA-MB-231 and MCF7 xenografts; experiment: dynamic glucoCEST MRI during D-glucose infusion in a xenograft mouse at 11.7 T; type: in vivo; conditions: FIGS. 6A-6C
Source text: FIGS. 6A-6C show results for a D-glucose infusion experiment with dynamic monitoring of the MR exchange transfer signals for a mouse with two tumor xenografts (MDA-MB-231 and MCF7) at 11.7 T for which a D-glucose infusion protocol similar to the example in FIG. 4 was used.

[3] = test system: MDA-MB-231 and MCF7 xenografts; experiment: DCE-MRI with GdDTPA (post-Gd-DTPA difference images) of the xenograft mouse; type: in vivo
Source text: We applied glucose infusion in vivo on xenografts in mice for two human breast cancer lines: less aggressive (MCF-7) and highly aggressive and metastatic (MDA-MB-231). Our MRI protocol used normal D-glucose (non-radioactive, non-hyperpolarized and not labeled with magnetic isotopes) and monitored this using glucose-based chemical exchange saturation transfer (glucoCEST) MRI. Images were compared with perfusion as assessed by dynamic contrast-enhanced (DCE) MRI and glucose uptake as assessed by FDG-PET. In-vivo animal experiments employed female SCID mice four to six weeks old. Tumor cells were implanted orthotopically in the mammary fat pad in an aseptic surgical procedure according to Institutional Animal Care and Use Committee (IACUC) guidelines. For cell implantation in the mammary fat pad, mice were anesthetized with ketamine and acepromazine (6.25 mg/kg and 62.5 mg/kg) injected in a volume of 0.05 ml using a sterile insulin syringe (28.5 G needle), and a cell suspension containing 1×10^6 MDA-MB-231 cells in 0.05 ml of Hanks balanced salt solution was injected into the upper right thoracic mammary fat pad using a sterile insulin syringe (28.5 G needle). […] Following tumor cell implants, animals were monitored until recovered from anesthesia and then checked after 6 and 12 h, then daily. […]

[4] = test system: MDA-MB-231 and MCF-7 xenografts; experiment: 18F-FDG-PET of the xenograft mouse; type: in vivo; conditions: 1 hr post-injection, FIG. 5B
Source text: We applied glucose infusion in vivo on xenografts in mice for two human breast cancer lines: less aggressive (MCF-7) and highly aggressive and metastatic (MDA-MB-231). Our MRI protocol used normal D-glucose (non-radioactive, non-hyperpolarized and not labeled with magnetic isotopes) and monitored this using glucose-based chemical exchange saturation transfer (glucoCEST) MRI. Images were compared with perfusion as assessed by dynamic contrast-enhanced (DCE) MRI and glucose uptake as assessed by FDG-PET. In-vivo animal experiments employed female SCID mice four to six weeks old. Tumor cells were implanted orthotopically in the mammary fat pad in an aseptic surgical procedure according to Institutional Animal Care and Use Committee (IACUC) guidelines. For cell implantation in the mammary fat pad, mice were anesthetized with ketamine and acepromazine (6.25 mg/kg and 62.5 mg/kg) injected in a volume of 0.05 ml using a sterile insulin syringe (28.5 G needle), and a cell suspension containing 1×10^6 MDA-MB-231 cells in 0.05 ml of Hanks balanced salt solution was injected into the upper right thoracic mammary fat pad using a sterile insulin syringe (28.5 G needle). […] Following tumor cell implants, animals were monitored until recovered from anesthesia and then checked after 6 and 12 h, then daily.

O=C[C@H](O)[C@@H](O)[C@H](O)[C@H](O)CO [D-glucose]
glucose uptake (MTR asymmetry histograms before and after infusion, ROIs) [1]: a trend towards higher glucose uptake in the malignant MDA-MB-231 tumor (ROI 1) as well as in the necrotic area in the MCF7 tumor (ROI 2)
uptake (MTRasym signal changes as a function of time during infusion, rim and tumor center) [2]: uptake is higher in the more malignant MDA-MB-231 tumor

O=C([O-])CN(CCN(CC(=O)[O-])CC(=O)O)CCN(CC(=O)[O-])CC(=O)O.[Gd+3] [Gd-DTPA, Gadolinium-DiethyleneTriaminePentaacetic Acid]
visualization of the tumor mass ([3]; 0.2 mmole/kg GdDTPA, FIG. 5C): good visualization of the tumor mass relative to normal tissue
highlighting of the necrotic area in the MCF7 tumor ([3]; Gd perfusion scan): did not highlight the necrotic area in the MCF7 tumor

Fluorodeoxyglucose [^18F-FDG]
glucose uptake on PET [4]: the MDA-MB-231 tumor exhibits a higher glucose uptake than the MCF-7 tumor
